The values that follow come from patent publication US20240425491A1, “HETEROARYL COMPOUNDS USEFUL IN THE TREATMENT OF COGNITIVE DISORDERS” (University College Cardiff Consultants Limited, priority 2021, published 2024).

pKi: −log10 of the molar value. Structures can show the parent of a compound that is named as a salt.

The test system of experiment [1] is mouse hippocampal brain slices (LTP suppressed by etomidate). The experiment is described as follows: Electrophysiology in hippocampal slices - long term potentiation assay.
For experiment [2], the target named is T1, human recombinant GABAAR containing α5β3γ2 subunits (benzodiazepine site) (Homo sapiens, UniProt P18507+P31644).
T1 construct: expressed in transfected cells; host or cells: mouse L(tk−) cells, dexamethasone-inducible vector pMSGneo
T1 sequence (P31644 32-462): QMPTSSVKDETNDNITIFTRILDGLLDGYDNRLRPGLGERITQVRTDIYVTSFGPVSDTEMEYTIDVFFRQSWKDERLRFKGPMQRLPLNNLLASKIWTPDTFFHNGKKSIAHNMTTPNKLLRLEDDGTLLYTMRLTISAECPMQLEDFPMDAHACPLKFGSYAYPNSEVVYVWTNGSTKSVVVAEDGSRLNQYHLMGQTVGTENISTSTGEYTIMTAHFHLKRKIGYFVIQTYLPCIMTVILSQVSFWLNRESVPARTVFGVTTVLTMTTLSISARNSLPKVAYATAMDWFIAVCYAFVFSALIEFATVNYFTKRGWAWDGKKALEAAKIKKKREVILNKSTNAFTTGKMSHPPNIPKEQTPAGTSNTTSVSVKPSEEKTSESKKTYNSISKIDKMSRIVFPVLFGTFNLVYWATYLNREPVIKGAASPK
T1 sequence (P28472 26-473 partner): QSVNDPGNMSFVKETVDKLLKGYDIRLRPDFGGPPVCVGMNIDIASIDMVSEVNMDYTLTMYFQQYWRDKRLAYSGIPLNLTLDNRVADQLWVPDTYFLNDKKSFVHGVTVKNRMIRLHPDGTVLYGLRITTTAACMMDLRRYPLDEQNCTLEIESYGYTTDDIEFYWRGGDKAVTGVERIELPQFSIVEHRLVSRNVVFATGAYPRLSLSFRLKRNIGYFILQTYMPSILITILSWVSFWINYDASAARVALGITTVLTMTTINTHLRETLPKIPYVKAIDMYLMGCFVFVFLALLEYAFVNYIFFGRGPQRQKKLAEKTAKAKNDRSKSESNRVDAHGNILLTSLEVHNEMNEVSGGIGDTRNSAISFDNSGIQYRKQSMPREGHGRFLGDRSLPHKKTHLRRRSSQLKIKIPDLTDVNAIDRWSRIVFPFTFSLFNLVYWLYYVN
T1 sequence (P18507 40-475): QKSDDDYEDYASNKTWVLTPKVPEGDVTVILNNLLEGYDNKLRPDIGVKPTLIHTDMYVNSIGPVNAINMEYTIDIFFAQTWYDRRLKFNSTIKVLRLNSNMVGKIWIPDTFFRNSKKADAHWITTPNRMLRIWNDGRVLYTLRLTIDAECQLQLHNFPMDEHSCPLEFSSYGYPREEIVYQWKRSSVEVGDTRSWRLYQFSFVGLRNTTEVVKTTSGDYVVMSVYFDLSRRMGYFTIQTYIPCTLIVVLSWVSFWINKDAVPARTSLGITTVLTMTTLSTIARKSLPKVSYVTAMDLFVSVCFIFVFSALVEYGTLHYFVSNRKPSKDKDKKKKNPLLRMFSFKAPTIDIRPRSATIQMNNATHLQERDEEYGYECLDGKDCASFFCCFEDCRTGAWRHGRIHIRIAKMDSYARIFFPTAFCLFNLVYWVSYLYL
The experiment is described as follows: In vitro radioligand binding assay (α5-GABAAR Ki). Particulars: inhibition of [3H]Ro15-1788 binding, membranes of L(tk−) cells expressing human α5β3γ2; read-out: α5-GABAAR Ki. The gist of the method: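 Displacement of 4 nM [^3H]flumazenil from the benzodiazepine site, read by filtration and scintillation, gave IC50, converted to Ki (Cheng-Prusoff, saturation-derived Kd). Receptor: human α5β3γ2 membranes from L(tk^−) cells, 50 μg protein/well; 1 h, 4° C; TP003 1 μM defined nonspecific binding.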

Experiment [3] concerns the target T2, human α5β3γ2L GABAA receptors in HEK293 cells (Homo sapiens, UniProt P18507+P31644).
T2 construct: expressed in transfected cells
The experiment is described as follows: In vitro electrophysiological recording assay (α5-GABAAR relative efficacy), SyncroPatch. It is filed as cell-based. As to conditions: Conc 0.1 μM; GABA EC10-20. The gist of the method: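 HEK293 cells stably expressing the receptor, automated whole-cell patch clamp at −80 mV, room temperature (20-22° C). Compound pre-incubated 1-2 min, then co-applied with GABA EC10-20; % change in peak current vs GABA alone (leak-subtracted). Tested generally at ≥100× Ki and normalised to DMCM efficacy as relative efficacy.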
In general terms: The patch-clamp technique gives a direct electrical read-out from membranes.

Experiment [4] concerns the target T3, human α5β3γ2 GABAARs in mouse L(tk−) cells (Homo sapiens, UniProt P18507+P31644).
T3 construct: expressed in transfected cells; host or cells: mouse L(tk−) cells, dexamethasone-inducible vector pMSGneo
The experiment is described as follows: In vitro electrophysiological recording assay (α5-GABAAR relative efficacy), QPatch. As to conditions: GABA EC10-20. It is filed as cell-based. The gist of the method:
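Whole-cell QPatch recordings at 20-22° C, −65 mV holding, in dexamethasone-induced (1 μM, 24 h) L(tk−) cells. Compound pre-applied ≥1 min, then co-applied with GABA EC10-20; percentage change in leak-corrected peak current, taken at ≥100× Ki, normalised to DMCM efficacy; 0.1% DMSO final.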

T3 sequence (P31644 32-462): as the sequence (P31644 32-462) above
T3 sequence (P28472 26-473 partner): as the sequence (P28472 26-473 partner) above
T3 sequence (P18507 40-475): as the sequence (P18507 40-475) above
T2 sequence (P31644 32-462): as the sequence (P31644 32-462) above
T2 sequence (P28472 26-473 partner): as the sequence (P28472 26-473 partner) above
T2 sequence (P18507 40-475): as the sequence (P18507 40-475) above

Take `CCOC(=O)c1cncn1[C@H](C)c1ccccc1` [etomidate, reference compound]: in experiment [1] (etomidate 3 μM alone, n=17, FIG. 2A), the “magnitude of LTP (fEPSP slope as % of control fEPSPs prior to 4-TBS vs time)” value is “reduced”. The “fEPSP slope at 50-60 min post-delivery of the 4-TBS” value in experiment [1] (etomidate alone compared to control, FIG. 2B) is listed as “significantly reduced fEPSP slope”.
Turning to `COc1nc(-c2cnc(N)cn2)ccc1NC(=O)c1c(-c2ccccc2)noc1C.Cl` [Example 55, N-[6-(5-Aminopyrazin-2-yl)-2-methoxy-3-pyridyl]-5-methyl-3-phenyl-isoxazole-4-carboxamide hydrochloride], the pKi in experiment [2] was 8.47. Further, in experiment [3], the “α5-GABAAR Relative Efficacy (to DMCM), SyncroPatch” value is listed as −0.93. The “α5-GABAAR Relative Efficacy (to DMCM), Qpatch” value in experiment [4] (Conc 1 μM) is listed as −0.92.
Take `CNCc1ccc(-c2ccc(NC(=O)c3c(-c4ccccc4)noc3C)c(OC)n2)cn1` [Example 190, N-[2-Methoxy-6-[6-(methylaminomethyl)-3-pyridyl]-3-pyridyl]-5-methyl-3-phenyl-isoxazole-4-carboxamide]: the pKi in experiment [2] was 8.96. Further, in experiment [3], the “α5-GABAAR Relative Efficacy (to DMCM), SyncroPatch” value is recorded as −0.72. Further, the “α5-GABAAR Relative Efficacy (to DMCM), Qpatch” value in experiment [4] (Conc 0.1 μM) was −0.59.
On the same counts, the results for `Cc1onc(-c2ccc(F)cc2)c1C(=O)Nc1ccc(-c2cnc3n2CCNC3)nc1OC(C)C.Cl` [Example 208, 3-(4-Fluorophenyl)-N-(2-isopropoxy-6-(5,6,7,8-tetrahydroimidazo[1,2-a]pyrazin-3-yl)pyridin-3-yl)-5-methylisoxazole-4-carboxamide hydrochloride] are 9.15, −0.70 and −0.38.
As to `COc1nc(-n2cnc3c2CNCC3)ccc1NC(=O)c1c(-c2ccccc2)noc1C.Cl.Cl` [Example 179, N-[2-Methoxy-6-(4,5,6,7-tetrahydroimidazo[4,5-c]pyridin-3-yl)-3-pyridyl]-5-methyl-3-phenyl-isoxazole-4-carboxamide dihydrochloride], the pKi in experiment [2] is 8.52. Also, in experiment [3], the “α5-GABAAR Relative Efficacy (to DMCM), SyncroPatch” value is −0.38. For the same compound, in experiment [4] (Conc 0.3 μM), the “α5-GABAAR Relative Efficacy (to DMCM), Qpatch” value is −0.65.
For the compound `COc1nc(-c2ccc(N)nc2)ccc1NC(=O)c1c(-c2ccccc2)noc1C` [Example 89, N-(6′-Amino-6-methoxy-[2,3′-bipyridin]-5-yl)-5-methyl-3-phenylisoxazole-4-carboxamide], the pKi in experiment [2] is 8.51. In experiment [3], the “α5-GABAAR Relative Efficacy (to DMCM), SyncroPatch” value was −0.62. Besides, the “α5-GABAAR Relative Efficacy (to DMCM), Qpatch” value in experiment [4] (Conc 1 μM) is reported as −0.64.
Turning to `COc1nc(-c2ccc(CN)nc2)ccc1NC(=O)c1c(-c2ccccc2)noc1C.Cl` [Example 199, N-[6-[6-(Aminomethyl)-3-pyridyl]-2-methoxy-3-pyridyl]-5-methyl-3-phenyl-isoxazole-4-carboxamide hydrochloride], in experiment [2], the pKi was 8.80. For the same compound, the “α5-GABAAR Relative Efficacy (to DMCM), SyncroPatch” value in experiment [3] was −0.93. Also, the “α5-GABAAR Relative Efficacy (to DMCM), Qpatch” value in experiment [4] (Conc 0.3 μM) is on record as −0.82.
As to `Cc1onc(-c2ccccc2)c1C(=O)Nc1ccc(-c2cnc(CN)nc2)nc1OC(C)C` [Example 207, N-(6-(2-(Aminomethyl)pyrimidin-5-yl)-2-isopropoxypyridin-3-yl)-5-methyl-3-phenylisoxazole-4-carboxamide hydrochloride], the pKi in experiment [2] is 9.52. Moreover, the “α5-GABAAR Relative Efficacy (to DMCM), SyncroPatch” value in experiment [3] is −0.83. In addition, the “α5-GABAAR Relative Efficacy (to DMCM), Qpatch” value in experiment [4] (Conc 0.1 μM) is given as −0.56.
Turning to `COc1nc(-c2cnc3n2CCN(C)C3)ccc1NC(=O)c1c(-c2ccccc2)noc1C` [Example 137, N-(2-Methoxy-6-(7-methyl-5,6,7,8-tetrahydroimidazol[1,2-a]pyrazin-3-yl)pyridin-3-yl)-5-methyl-3-phenylisoxazole-4-carboxamide], the negative logarithm of the Ki (pKi) in experiment [2] was 8.42. Besides, the “α5-GABAAR Relative Efficacy (to DMCM), SyncroPatch” value in experiment [3] is −0.69. For the same compound, the “α5-GABAAR Relative Efficacy (to DMCM), Qpatch” value in experiment [4] (Conc 1 μM) is −0.80.
On the same counts, the results for `COc1nc(-c2cnc(CN)nc2)ccc1NC(=O)c1c(-c2ccccc2)nnn1C.Cl` [Example 180, N-(6-(2-(Aminomethyl)pyrimidin-5-yl)-2-methoxypyridin-3-yl)-1-methyl-4-phenyl-1H-1,2,3-triazole-5-carboxamide hydrochloride] are 8.41, −0.48 and −0.63.
Turning to `COc1nc(-c2cnc(OC3CNC3)nc2)ccc1NC(=O)c1c(-c2ccccc2)noc1C` [Example 189, N-[6-[2-(Azetidin-3-yloxy)pyrimidin-5-yl]-2-methoxy-3-pyridyl]-5-methyl-3-phenyl-isoxazole-4-carboxamide], in experiment [2], the pKi is 9.15. Further, the “α5-GABAAR Relative Efficacy (to DMCM), SyncroPatch” value in experiment [3] is on record as −0.72. Further, in experiment [4] (Conc 0.1 μM), the “α5-GABAAR Relative Efficacy (to DMCM), Qpatch” value is listed as −0.70.
For the compound `COc1nc(-c2cnn(C)c2)ccc1NC(=O)c1c(-c2ccccc2)noc1C` [Example 4, N-[2-Methoxy-6-(1-methylpyrazol-4-yl)-3-pyridyl]-5-methyl-3-phenyl-isoxazole-4-carboxamide], the pKi in experiment [2] is 7.53. In addition, the “α5-GABAAR Relative Efficacy (to DMCM), SyncroPatch” value in experiment [3] is −0.36. Further, in experiment [4] (Conc 1 μM), the “α5-GABAAR Relative Efficacy (to DMCM), Qpatch” value was −0.68.
Consider `COc1nc(-c2cnc(O)c(C(F)(F)F)c2)ccc1NC(=O)c1c(-c2ccccc2)noc1C` [Example 107, N-(6′-Hydroxy-6-methoxy-5′-(trifluoromethyl)-[2,3′-bipyridin]-5-yl)-5-methyl-3-phenylisoxazole-4-carboxamide], for which, in experiment [2], the pKi is 7.87. Besides, the “α5-GABAAR Relative Efficacy (to DMCM), SyncroPatch” value in experiment [3] is listed as −0.47. Further, in experiment [4] (Conc 3 μM), the “α5-GABAAR Relative Efficacy (to DMCM), Qpatch” value is listed as −0.66.

In general, pKi refers to the negative decadic logarithm of the Ki, by convention in mol/L.
